ChEMBL document CHEMBL1909046, “DrugMatrix in vitro pharmacology data”

Columns and labels:
[1] = target: Receptor tyrosine-protein kinase erbB-2 (Homo sapiens, UniProt P04626); assay: biochemical; format: cell-based, Insect cells; conditions: insect cells;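 also: inhibition of HER2 kinase enzyme activity, measured with Poly(Glu:Tyr) as the phosphorylation substrate; in other assays of this panel Not Active means under 50% inhibition at 10 µM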
[2] = target: 5-hydroxytryptamine receptor 6 (Homo sapiens, UniProt P50406); format: cell membranes, HeLa, Membrane; conditions: hela; also: in other assays of this panel Not Active means under 50% inhibition at 10 µM
[3] = DRUGMATRIX: GABAA, Muscimol, Central radioligand binding (ligand: [3H] Muscimol); format: cell membranes, Rattus norvegicus, Wistar, Brain, Membrane; conditions: Not Active = under 50% inhibition at 10 µM
[4] = target: T1, C-C chemokine receptor type 4 (Homo sapiens, UniProt P51679); format: cell membranes, Chem-1, Membrane; conditions: chem-1; also: in other assays of this panel Not Active means under 50% inhibition at 10 µM
T1 sequence (P51679 whole entry): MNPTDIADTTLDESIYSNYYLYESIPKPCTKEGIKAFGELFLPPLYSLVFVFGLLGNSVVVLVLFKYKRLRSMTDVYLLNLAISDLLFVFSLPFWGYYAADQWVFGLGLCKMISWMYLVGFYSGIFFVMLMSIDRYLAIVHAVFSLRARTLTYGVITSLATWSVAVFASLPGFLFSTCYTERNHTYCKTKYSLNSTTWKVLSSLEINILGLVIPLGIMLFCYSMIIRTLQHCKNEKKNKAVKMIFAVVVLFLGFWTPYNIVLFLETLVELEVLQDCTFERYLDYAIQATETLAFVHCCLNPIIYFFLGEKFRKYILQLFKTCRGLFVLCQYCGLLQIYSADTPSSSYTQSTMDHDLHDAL

Melanocortin receptor 4 = Melanocortin receptor 4 (Homo sapiens, UniProt P32245); format: cell membranes, HEK293, Membrane; conditions: hek293; also: in other assays of this panel Not Active means under 50% inhibition at 10 µM
Mu-type opioid receptor = Mu-type opioid receptor (Homo sapiens, UniProt P35372); assay: DRUGMATRIX: Opiate mu (OP3, MOP) radioligand binding (ligand: [3H] Diprenorphine); format: cell membranes, CHO-K1, Membrane; conditions: Not Active = under 50% inhibition at 10 µM
Sequence of Mu-type opioid receptor (P35372 whole entry): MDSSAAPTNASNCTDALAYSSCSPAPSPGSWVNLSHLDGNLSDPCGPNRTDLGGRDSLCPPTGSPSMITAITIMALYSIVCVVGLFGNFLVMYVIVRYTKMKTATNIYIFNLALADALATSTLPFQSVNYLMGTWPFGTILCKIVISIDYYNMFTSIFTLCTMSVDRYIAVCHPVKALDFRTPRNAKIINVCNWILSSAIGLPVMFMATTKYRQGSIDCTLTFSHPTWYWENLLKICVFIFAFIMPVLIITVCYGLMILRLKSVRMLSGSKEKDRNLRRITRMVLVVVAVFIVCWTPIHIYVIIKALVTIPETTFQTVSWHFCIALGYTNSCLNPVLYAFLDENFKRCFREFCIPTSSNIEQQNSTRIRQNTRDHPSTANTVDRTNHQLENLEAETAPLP

Sequence of Melanocortin receptor 4 (P32245 whole entry): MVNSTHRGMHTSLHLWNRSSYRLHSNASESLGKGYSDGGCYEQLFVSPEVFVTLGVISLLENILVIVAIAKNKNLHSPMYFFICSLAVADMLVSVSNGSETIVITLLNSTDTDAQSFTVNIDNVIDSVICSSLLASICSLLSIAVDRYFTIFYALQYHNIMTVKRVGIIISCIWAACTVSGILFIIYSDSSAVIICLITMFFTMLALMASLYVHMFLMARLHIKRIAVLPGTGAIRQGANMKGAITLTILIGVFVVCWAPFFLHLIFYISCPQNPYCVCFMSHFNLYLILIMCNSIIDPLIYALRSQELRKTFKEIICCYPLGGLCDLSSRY
Sequence of 5-hydroxytryptamine receptor 6 (P50406 whole entry): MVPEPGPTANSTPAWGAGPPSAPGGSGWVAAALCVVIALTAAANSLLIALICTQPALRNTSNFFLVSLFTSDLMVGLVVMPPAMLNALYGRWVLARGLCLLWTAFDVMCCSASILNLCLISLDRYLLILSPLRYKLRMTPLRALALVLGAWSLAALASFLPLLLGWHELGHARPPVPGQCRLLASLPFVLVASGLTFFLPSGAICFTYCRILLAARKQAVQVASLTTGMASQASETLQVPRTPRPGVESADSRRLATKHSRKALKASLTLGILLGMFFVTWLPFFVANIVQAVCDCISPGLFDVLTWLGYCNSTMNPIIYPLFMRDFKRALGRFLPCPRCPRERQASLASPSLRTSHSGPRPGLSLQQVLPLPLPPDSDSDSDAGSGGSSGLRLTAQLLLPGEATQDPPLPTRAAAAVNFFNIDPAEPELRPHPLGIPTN
Sequence of Receptor tyrosine-protein kinase erbB-2 (P04626 whole entry): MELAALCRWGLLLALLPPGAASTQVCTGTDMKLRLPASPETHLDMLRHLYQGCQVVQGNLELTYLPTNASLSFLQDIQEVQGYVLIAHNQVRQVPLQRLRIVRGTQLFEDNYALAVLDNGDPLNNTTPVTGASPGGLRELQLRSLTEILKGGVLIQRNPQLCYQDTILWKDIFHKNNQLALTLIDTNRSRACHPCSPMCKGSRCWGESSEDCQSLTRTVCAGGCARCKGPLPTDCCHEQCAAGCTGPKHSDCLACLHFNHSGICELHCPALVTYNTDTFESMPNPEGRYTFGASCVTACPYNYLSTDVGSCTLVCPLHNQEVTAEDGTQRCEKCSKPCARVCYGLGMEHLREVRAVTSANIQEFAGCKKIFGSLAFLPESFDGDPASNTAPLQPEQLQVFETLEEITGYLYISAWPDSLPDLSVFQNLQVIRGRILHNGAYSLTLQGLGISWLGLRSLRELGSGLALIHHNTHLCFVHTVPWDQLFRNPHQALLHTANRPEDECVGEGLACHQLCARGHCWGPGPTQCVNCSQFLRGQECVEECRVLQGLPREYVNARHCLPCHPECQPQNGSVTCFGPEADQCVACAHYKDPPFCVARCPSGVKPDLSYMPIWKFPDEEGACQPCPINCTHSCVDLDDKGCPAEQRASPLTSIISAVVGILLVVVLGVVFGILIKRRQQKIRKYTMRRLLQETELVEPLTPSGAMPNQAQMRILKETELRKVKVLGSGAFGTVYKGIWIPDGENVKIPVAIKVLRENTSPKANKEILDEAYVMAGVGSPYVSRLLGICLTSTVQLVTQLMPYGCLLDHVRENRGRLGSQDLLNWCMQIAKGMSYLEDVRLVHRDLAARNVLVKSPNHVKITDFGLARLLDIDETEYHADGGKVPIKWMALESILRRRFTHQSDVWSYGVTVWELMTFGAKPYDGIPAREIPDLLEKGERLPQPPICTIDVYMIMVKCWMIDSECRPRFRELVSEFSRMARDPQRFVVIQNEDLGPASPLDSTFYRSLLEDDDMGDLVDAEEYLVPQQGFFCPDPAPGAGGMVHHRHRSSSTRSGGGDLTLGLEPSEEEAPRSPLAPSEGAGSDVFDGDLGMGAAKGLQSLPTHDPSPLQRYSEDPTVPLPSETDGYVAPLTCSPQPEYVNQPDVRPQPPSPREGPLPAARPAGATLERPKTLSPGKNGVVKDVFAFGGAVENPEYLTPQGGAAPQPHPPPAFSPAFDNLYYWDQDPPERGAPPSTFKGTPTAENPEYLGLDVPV

SMILES | IC50 [1] | IC50 [2] | IC50 [3] | Ki [3] | IC50 [4] | IC50 (Melanocortin receptor 4) | IC50 (Mu-type opioid receptor; cho-k1) | Ki (Mu-type opioid receptor) [µM] | IC50 (Mu-type opioid receptor; read-out: IC50) [µM]
N[C@@H]1[C@H]2CN(c3nc4c(cc3F)c(=O)c(C(=O)O)cn4-c3ccc(F)cc3F)C[C@@H]12 [TROVAFLOXACIN] | Not Active | Not Active | Not Active | Not Active | Not Active | Not Active | Not Active |  | 
Cc1cccc(N(C)C(=S)Oc2ccc3ccccc3c2)c1 [TOLNAFTATE] | Not Active | Not Active | Not Active | Not Active | Not Active | Not Active | Not Active |  | 
Cc1oncc1C(=O)Nc1ccc(C(F)(F)F)cc1 [LEFLUNOMIDE] | Not Active | Not Active | Not Active | Not Active | Not Active | Not Active | Not Active |  | 
Nc1nc2ccc(OC(F)(F)F)cc2s1 [RILUZOLE] | Not Active | Not Active | Not Active | Not Active | Not Active | Not Active | Not Active |  | 
Cc1c(C)c2c(c(C)c1O)CCC(C)(COc1ccc(CC3SC(=O)NC3=O)cc1)O2 (stereo unspecified) [TROGLITAZONE] | Not Active | Not Active | Not Active | Not Active | Not Active | Not Active | Not Active |  | 
CCCOc1ccccc1-c1nc2nn[nH]c2c(=O)[nH]1 [ZAPRINAST] | Not Active | Not Active | Not Active | Not Active | Not Active | Not Active | Not Active |  | 
CC[C@]1(O)C[C@H]2CN(CCc3c([nH]c4ccccc34)[C@@](C(=O)OC)(c3cc4c(cc3OC)N(C=O)[C@H]3[C@@](O)(C(=O)OC)[C@H](OC(C)=O)[C@]5(CC)C=CCN6CC[C@]43[C@@H]65)C2)C1 [VINCRISTINE] | Not Active | Not Active | Not Active | Not Active | Not Active | Not Active | Not Active |  | 
COc1c(C)c2c(c(O)c1C/C=C(\C)CCC(=O)O)C(=O)OC2 [MYCOPHENOLIC ACID] | Not Active | Not Active | Not Active | Not Active | Not Active | Not Active | Not Active |  | 
CSc1ccc(/C=C2/C(C)=C(CC(=O)O)c3cc(F)ccc32)cc1 [SULINDAC SULFIDE] | Not Active | Not Active | Not Active | Not Active | Not Active | Not Active |  | 13.7 | 33.7
O=NN(CCCl)C(=O)NC1CCCCC1 [LOMUSTINE] | Not Active | Not Active | Not Active | Not Active | Not Active | Not Active | Not Active |  | 
